For one compound, viscosity results are on record in the NIST ThermoML archive (doi:10.1021/je100990n).

Values joined by “and” are separate entries in the source; they are usually repeats but may differ in a detail not shown here. Equal values may be shown once. Numbers after ± are expanded uncertainties.

For this series the following is noted: 293.15 K; 101.33 kPa; Liquid; Vibrating wire viscometry.

In the case of `O` [water], the viscosity is 1.002 ± 0.0087 mPa·s and 1.005 ± 0.0087 mPa·s and 0.9992 ± 0.0087 mPa·s.

Usually viscosity stands for the internal friction of a fluid under shear.
